Results on one compound are retold here after US20190256827A1, “EPIGENOME EDITING SYSTEMS AND METHODS” (STC.UNM, priority 2017, published 2019).

The subject of the assay is GRM2 locus in HEK293T cells. As to the kind of experiment: ChIP-qPCR of FLAG-ABI-P300 and H3K27Ac at the GRM2 locus. Type of assay: cell-based, human. Here is the method: To determine if the new method can be used to modify H3K27Ac at other gene loci, sgRNAs were designed that target the promoter region of other genes with low expression levels in HEK293T cells, including GRM2, HBA and MYOD1 (Table 1).
Human embryonic kidney cell HEK293T (American Type Culture Collection, Manassas, Va.) was cultured in Dulbecco's modified Eagle's medium (DMEM) (Gibco) with 10% FBS (Atlanta Biologicals), 1× GlutaMax (Gibco, Thermo Fisher Scientific, Inc., Waltham, Mass.), and 1× penicillin/streptomycin (Pen/Strep; Gibco, Thermo Fisher Scientific, Inc., Waltham, Mass.). Cells (100,000/ml) were plated in 24-well or 10-cm cell culture plate the day before transfection. For each well of 24-well plate transfection, 500 ng of dCas9-PYL-HA, 420 ng of FLAG-ABI-P300, and a total amount of 200-ng mix of gRNAs, with a 50-ng per each gRNA, were mixed with 50×(v/w) Opti-MEM (Gibco, Thermo Fisher Scientific, Inc., Waltham, Mass.), then incubate with the same volume of 3 μg PEI-Opti-MEM solution for 20 minutes at room temperature. Then, 100 μL of PEI-combined plasmids were added to every single well of 24-well plate and cultured for 24 hours before experiments were performed. For a 10 cm plate, 1 mL of PEI-combined plasmids were needed. After six hours transfection, cells were washed and incubated for another 1-72 hours before experiments were performed.
ChIP protocol was optimized from the method in Molecular Cloning, Fourth edition (Cold Spring Harbor Laboratory Press, 2012). In brief, cells cultured in a 10-cm plate were fixed with 1 mL of cross-linking buffer (0.1 M NaCl, 1 mM EDTA, 0.5 mM EGTA, 50 mM HEPES and 11% formaldehyde), and shaken in room temperature for 15 minutes. Then 1.1 mL of 1.25 M glycine was added to the solution to stop crosslinking. After washing three times in ice cold PBS, cells were scraped and suspended in 10 mL of lysis buffer (50 mM HEPES, 140 mM NaCl, 1 mM EDTA, 10% Glycerol, 0.5% NP40, 0.25% Triton X-100), and rocked at 4° C. for 10 minutes. […]

Setting [1] is: GRM2 sgRNAs, ABA treatment for 48 hours.

Consider `CC1=CC(=O)CC(C)(C)[C@@]1(O)/C=C/C(C)=C\C(=O)O` [ABA, abscisic acid], for which the “induction and reversibility of H3K27Ac enrichment at the GRM2 locus” value (ABA 4-24 hours, then washing and 24 hours without ABA) is “rapidly induced upon ABA addition and reversed after ABA removal”. Also, under setting [1], the “enrichment of FLAG-ABI-P300 at the GRM2 locus” value is “causes the enrichment” and the “enrichment of H3K27Ac at the GRM2 locus” value was “causes the enrichment”.
